Laboratory results reported in paper PMC10849753, “Antiproliferative activity of platinum(II) and copper(II) complexes containing novel biquinoxaline ligands” (Metallomics: Integrated Biometal Science, 2024).

Assays:
EtBr-bound CT-DNA = assay: Fluorescence quenching of EtBr-pretreated CT-DNA (Stern–Volmer); type: binding, calf; parameters: unit not given here; details: 0 to 160 μM compounds
Description: In order to obtain the linear Stern–Volmer quenching constant (Ksv), a Thermo-Scientific Lumina Fluorescence Spectrometer was used to conduct the flourometric measurements of 10 μM ethidium bromide (EtBr)-pretreated CT-DNA solutions in the presence of 0 to 160 μM compounds.[31],[36] The excitation wavelength was adjusted at 478 nm, and emissions ware observed at about 610 nm.

[1] = target: T1, human serum albumin (HSA) (Homo sapiens, UniProt P02768); assay: UV titration with HSA; details: binding to HSA, 310-340 K
Description: The change in the electronic absorption spectrum of the complexes in the presence and the absence of CT-DNA was followed using an HP Agilent8453 Spectrophotometer. During the measurements, the concentration of the compounds was kept constant [Cu(tpbq)Cl2 = 3.0 × 10^−3 M; Cu(ttbq)Cl2 = 0.50 × 10^−3 M; Pt(tpbq)Cl2 = 3.0 × 10^−3 M; Pt(ttbq)Cl2 = 3.0 × 10^−3 M)], while the CT-DNA concentration was changed depending on the R (R=[DNA]/[complex]) value of 0 to 10. […] The optimal incubation time was determined as 30 min for Cu(ttbq)Cl2, 60 min for Pt(tpbq)Cl2, and 45 min for Cu(tpbq)Cl2 and Pt(ttbq)Cl2 at 37°C spectroscopically. […] The optimal incubation time for HSA binding titrations was determined as 30 min for Cu(ttbq)Cl2 and Pt(ttbq)Cl2, and 60 min for Cu(tpbq) Cl2 and Pt(tpbq)Cl2 spectroscopically.[37]

[2] = target: T1, human serum albumin (HSA); assay: HSA fluorescence quenching titration; type: binding; parameters: unit not given here; details: 1 μM HSA, 0-50 μM complexes
Description: Tests involving fluorescence titration were conducted by maintaining the concentration of 1 μM HSA and changing the concentrations of the complexes between 0 and 50 μM in 5 mM Tris HCl buffer. The fluorescence spectral measurements were made at […] to 500 nm after exciting the solution at 280 nm.

[3] = target: T1, human serum albumin (HSA); assay: HSA thermal denaturation; type: binding; details: HSA alone 114°C; 280 nm
Description: The HSA thermal decomposition was followed at 280 nm upon increasing the temperature from 30°C to 130°C at a 1°C min^−1 rate from the spectral change. In order to better examine the processes involving the interaction of metal complexes and protein structure, viscometric titration was carried out in the same manner as for the nucleic acid.

A172 cells = assay: MTT cell viability assay; type: cell-based, human
Description: (§1) Cell culture growth conditions: Selected cancer cell lines from different origins, including human glioblastoma A172 (CRL-1620), LN229 (CRL-2611), U87 (HTB-14) cell lines, human cervix HeLa (ATCC, CCL-2), human breast MDA -231 (HTB-26), human prostate PC-3 (ATCC, CRL-1435), human lung A-549 (CCL-185), and non-cancer Chinese hamster ovary CHOK1 cell line (CCL61) (which was used as control) were purchased from American Type Culture Collection (ATCC, USA). These cultures were grown in Dulbecco's modified Eagle's medium-F12 (DMEM/F12, #D0547, Sigma-Aldrich) supplemented with 5% fetal bovine serum (#10500, Gibco) and 1% antibiotic-antimycotic (#15240, Gibco), and incubated at 37°C and 5% CO2. They were harvested and used for the following assays after reaching 70–80% confluency.
(§2) The used cell lines (A172, LN229, U87, HeLa, MDA-231, PC-3, A549, and CHO-K1) were harvested and seeded (6 × 10^3 cells/well) into the 96-well plates and incubated at 37°C and 5% CO2 for 24 h. After that, the synthesized Cu(II) and Pt(II) complexes, at a concentration range of 6.25 to 100 μM in DMEM-F12, were added to the cell monolayers and incubated at 37°C and 5% CO2 for 24, 48, and 72 h. The dose–response relationships of the synthesized complexes were determined by using an MTT colorimetric agent (3-[4,5-dimethylthiazol-2-yl]-2,5-diphenyltetrazolium bromide, #M5655, Sigma-Aldrich), which is reduced by the mitochondrial enzymes of the metabolically active live cells and converted into a purple formazan product. The MTT stock solution was later dissolved in a phosphate buffer solution (PBS, 5 mg/ml, w/v) and, then, 5 μg/ml of MTT in DMEM was added into each well and incubated at 37°C and 5% CO2 for 4 h. DMSO (#D 8418, Sigma-Aldrich), as a dissolving solution for formazan crystals, was added into each well and placed in a shaker for 2 h. The absorbance at a test wavelength of 570 nm and a reference wavelength of 630 nm was measured on a microplate reader.

A549 cells = assay: MTT cell viability assay; type: cell-based, human
Description: as §1, §2

HeLa cells [4] = assay: MTT cell viability assay; type: cell-based, human
Description: as §1, §2

LN229 cells = assay: MTT cell viability assay; type: cell-based, human
Description: as §1, §2

MDA231 cells = assay: MTT cell viability assay; type: cell-based, human
Description: as §1, §2

CHO-K1 cells = assay: MTT cell viability assay (non-cancer control); type: cell-based, Chinese hamster
Description: as §1, §2

HeLa cells [5] = assay: Matrigel invasion analysis; type: cell-based, human; details: 6.25 and 12.5 μM, 24 h, vs negative control
Description: The analysis was completed with U87 and HeLa cell lines to assess the metastatic potential of tumor cells using transwell inserts with an 8 μm pore size polycarbonate membrane (Corning Costar, Cambridge, MA, USA) coated with 1/5 of Matrigel (Beckton Dickinson, Bedford, MA, USA) and air-dried at room temperature. After seeding the U87 and HeLa cell lines (3 × 10^5cells/insert), the complex concentrations were selected as 6.25 or 12.5 μM and incubated at 37°C in a humidified incubator with 5% CO2 for 24 h. The cell monolayers in the transwell inserts were fixed with ice-cold methanol and stained with 0.05% crystal violet for the analysis. The invasion of the cells to the basolateral side of the inserts was investigated using a light microscope with 40× magnification.

T1 sequence (P02768 25-609): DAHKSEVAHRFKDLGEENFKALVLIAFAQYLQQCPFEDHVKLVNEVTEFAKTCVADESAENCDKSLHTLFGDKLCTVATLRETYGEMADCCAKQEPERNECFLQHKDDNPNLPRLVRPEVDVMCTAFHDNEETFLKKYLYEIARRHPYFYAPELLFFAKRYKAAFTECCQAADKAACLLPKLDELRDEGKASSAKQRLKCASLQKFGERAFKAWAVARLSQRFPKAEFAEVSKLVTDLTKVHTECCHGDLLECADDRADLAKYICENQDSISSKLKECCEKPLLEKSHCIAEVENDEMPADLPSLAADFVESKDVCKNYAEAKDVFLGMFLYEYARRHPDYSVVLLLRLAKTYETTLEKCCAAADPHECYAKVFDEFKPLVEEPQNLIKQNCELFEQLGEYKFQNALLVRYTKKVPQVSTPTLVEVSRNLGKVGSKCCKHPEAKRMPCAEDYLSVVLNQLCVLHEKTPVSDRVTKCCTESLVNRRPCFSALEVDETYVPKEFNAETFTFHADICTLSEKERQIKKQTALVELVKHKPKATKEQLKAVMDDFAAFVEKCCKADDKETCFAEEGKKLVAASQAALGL

Compound | KSV (Stern–Volmer quenching constant) (EtBr-bound CT-DNA) | ΔG^o (standard Gibbs free energy change) [1] [J] | ΔH^o (standard enthalpy change) [1] [J] | ΔS^o (standard entropy change) [1] [J/K] | KSV (Stern–Volmer quenching constant) [2] | melting point of HSA upon addition of the complex [3] [°C] | IC50 (A172 cells; A172, 24 h exposure) [µM] | IC50 (A172 cells; A172, 48 h exposure) [µM] | IC50 (A172 cells; A172, 72 h exposure) [µM] | IC50 (A549 cells; A549, 24 h exposure) [µM] | IC50 (A549 cells; A549, 48 h exposure) [µM] | IC50 (A549 cells; A549, 72 h exposure) [µM] | IC50 (HeLa cells [4]; 24 h exposure) [µM] | IC50 (HeLa cells [4]; 48 h exposure) [µM] | IC50 (HeLa cells [4]; 72 h exposure) [µM] | IC50 (LN229 cells; LN229, 24 h exposure) [µM] | IC50 (LN229 cells; LN229, 48 h exposure) [µM] | IC50 (LN229 cells; LN229, 72 h exposure) [µM] | IC50 (MDA231 cells; MDA231, 24 h exposure) [µM] | IC50 (MDA231 cells; MDA231, 48 h exposure) [µM] | further results
[Cl][Cu][Cl].c1ccc(-c2nc3ccc(-c4ccc5nc(-c6ccccn6)c(-c6ccccn6)nc5c4)cc3nc2-c2ccccn2)nc1 [Cu(tpbq)Cl2] | 0.0105 | -19800 | 120800 | 458.15 | 0.0059 | 110 | > 100 | > 100 | 92 ± 7.46 | > 100 | > 100 | > 100 | > 100 | > 100 | > 100 | > 100 | > 100 | > 100 | 72.1 ± 26 | > 100 | IC50 (MDA231 cells; MDA231, 72 h exposure): > 100 µM; IC50 (CHO-K1 cells; CHO-K1, 24 h exposure): > 100 µM; IC50 (CHO-K1 cells; CHO-K1, 48 h exposure): > 100 µM; IC50 (CHO-K1 cells; CHO-K1, 72 h exposure): > 100 µM; anti-invasive effect (HeLa cells [5]): did not have any anti-invasive effect
[Cl][Cu][Cl].c1csc(-c2nc3ccc(-c4ccc5nc(-c6cccs6)c(-c6cccs6)nc5c4)cc3nc2-c2cccs2)c1 [Cu(ttbq)Cl2] | 0.0137 | -27900 | 53100 | 258.51 | 0.0720 | 111 | 69.44 ± 0.19 | 63.9 ± 3.56 | 57.4 ± 13.7 | 73.5 ± 1.35 | 70.7 ± 4.09 | 66.9 ± 8.7 | 67.5 ± 2.78 | 74.22 ± 0.45 | 65 ± 2.75 | 42 ± 14 | 36 ± 6.38 | 54 ± 3.1 | 20.6 ± 2.39 | 32.1 ± 1.05 | IC50 (MDA231 cells; MDA231, 72 h exposure): 41 ± 0.6 µM; IC50 (CHO-K1 cells; CHO-K1, 24 h exposure): > 100 µM; IC50 (CHO-K1 cells; CHO-K1, 48 h exposure): > 100 µM; IC50 (CHO-K1 cells; CHO-K1, 72 h exposure): > 100 µM; anti-invasive effect (HeLa cells [5]): high anti-invasive effects
[Cl][Pt][Cl].c1ccc(-c2nc3ccc(-c4ccc5nc(-c6ccccn6)c(-c6ccccn6)nc5c4)cc3nc2-c2ccccn2)nc1 [Pt(tpbq)Cl2] | 0.0082 | -31400 | 22900 | 174.97 | 0.0261 | 109 | 94.3 ± 12.3 | 39.4 ± 15.8 | 73.67 ± 0.28 | > 100 | 58.4 ± 5.35 | 40.3 ± 3.42 | > 100 | 58 ± 26.9 | 42.9 ± 1.69 | > 100 | 91.9 ± 49 | 83.9 ± 3.16 | 94.8 ± 2.57 | > 100 | IC50 (MDA231 cells; MDA231, 72 h exposure): 99.4 ± 5.71 µM; IC50 (CHO-K1 cells; CHO-K1, 24 h exposure): > 100 µM; IC50 (CHO-K1 cells; CHO-K1, 48 h exposure): 86.6 ± 1.98 µM; IC50 (CHO-K1 cells; CHO-K1, 72 h exposure): 77.5 ± 0.87 µM; anti-invasive effect (HeLa cells [5]): high anti-invasive effects
[Cl][Pt][Cl].c1csc(-c2nc3ccc(-c4ccc5nc(-c6cccs6)c(-c6cccs6)nc5c4)cc3nc2-c2cccs2)c1 [Pt(ttbq)Cl2] | 0.0143 | -28600 | 33200 | 198.00 | 0.0589 | 105 | 93.5 ± 18.4 | 65.5 ± 17.7 | 49.5 ± 5.73 | 95 ± 2.93 | > 100 | > 100 | 88.9 ± 8.31 | 79.7 ± 24.2 | > 100 | 67.9 ± 16.3 | 44.8 ± 11.6 | 38.8 ± 1.46 | 85 ± 10.8 | > 100 | IC50 (MDA231 cells; MDA231, 72 h exposure): > 100 µM; IC50 (CHO-K1 cells; CHO-K1, 24 h exposure): > 100 µM; IC50 (CHO-K1 cells; CHO-K1, 48 h exposure): > 100 µM; IC50 (CHO-K1 cells; CHO-K1, 72 h exposure): > 100 µM; anti-invasive effect (HeLa cells [5]): higher potency to prevent the invasion
